# Experimental data published in patent US4925877A, “Physiologically active erbstatin analogue compounds and compositions” (Zaidanhojin Biseibutsu Kagaku Kenkyukai, priority 1986, dated 1990).
# Read-outs that look alike come from different tables or passages of the source.
# Tests used:
# [1] = molecular target: T1, tyrosine-specific protein-kinase (epidermal growth factor receptor-kinase, A-431 membrane fraction) (Homo sapiens, UniProt P00533); assay: TPK-I activity (inhibition of tyrosine-specific protein-kinase / epidermal growth factor receptor-kinase, 32P-ATP, A-431 membrane fraction); assay type: biochemical
# T1 construct: a membrane fraction of human epidermal carcinoma cells A-431 was used; endogenous in cells; host or cells: A-431 human epidermal carcinoma cells, membrane fraction
# T1 sequence (P00533 25-1210): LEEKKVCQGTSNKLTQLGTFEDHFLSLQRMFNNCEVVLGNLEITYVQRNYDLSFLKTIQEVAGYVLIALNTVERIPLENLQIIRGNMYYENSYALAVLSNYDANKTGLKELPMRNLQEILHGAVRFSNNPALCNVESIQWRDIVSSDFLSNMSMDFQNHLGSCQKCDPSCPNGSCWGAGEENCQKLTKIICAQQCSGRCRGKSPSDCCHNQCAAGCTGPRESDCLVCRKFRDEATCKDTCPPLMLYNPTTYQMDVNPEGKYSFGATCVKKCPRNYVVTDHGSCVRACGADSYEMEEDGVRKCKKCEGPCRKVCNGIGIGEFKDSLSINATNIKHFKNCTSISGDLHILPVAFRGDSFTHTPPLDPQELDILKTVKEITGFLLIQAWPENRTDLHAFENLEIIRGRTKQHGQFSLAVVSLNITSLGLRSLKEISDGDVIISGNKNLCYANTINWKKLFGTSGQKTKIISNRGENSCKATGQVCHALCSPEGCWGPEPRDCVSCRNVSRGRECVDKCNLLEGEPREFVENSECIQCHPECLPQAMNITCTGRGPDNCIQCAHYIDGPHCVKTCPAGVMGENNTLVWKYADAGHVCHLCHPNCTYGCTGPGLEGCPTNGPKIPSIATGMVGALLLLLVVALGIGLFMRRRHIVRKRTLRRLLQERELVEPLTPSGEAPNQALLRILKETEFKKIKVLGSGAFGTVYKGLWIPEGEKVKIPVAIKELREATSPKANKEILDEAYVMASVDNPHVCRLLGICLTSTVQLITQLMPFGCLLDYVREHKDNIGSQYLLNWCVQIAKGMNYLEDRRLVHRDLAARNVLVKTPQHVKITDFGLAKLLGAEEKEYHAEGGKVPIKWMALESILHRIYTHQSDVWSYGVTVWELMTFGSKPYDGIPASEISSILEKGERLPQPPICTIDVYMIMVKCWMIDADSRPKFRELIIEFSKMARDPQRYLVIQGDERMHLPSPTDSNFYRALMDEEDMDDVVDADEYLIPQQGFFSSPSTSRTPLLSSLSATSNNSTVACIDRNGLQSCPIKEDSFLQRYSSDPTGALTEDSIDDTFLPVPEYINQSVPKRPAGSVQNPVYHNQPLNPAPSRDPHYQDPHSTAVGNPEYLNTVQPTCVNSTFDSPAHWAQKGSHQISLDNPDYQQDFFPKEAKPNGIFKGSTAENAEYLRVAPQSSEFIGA
# Protocol: 50 μl of the reaction mixture was sampled and absorbed to Wattman No. 3MM filter membrane and dipped in an ice-cooled TCA. After kept for 30 minutes, the filter membrane was taken out and washed out TCA, ethanol and ether, and the count of ^32 P as stuck to the said filter membrane was measured (a). The same reaction and treatment were carried out, where the test substance only was excluded, and the count of ^32 P on the filter was measured in the same manner (b). Further, the values as measured in the cases where the membrane fraction was excluded were (a') and (b'), respectively. Thus, the percentage of the inhibition of the epiderman growth factor receptor-kinase was calculated from the formula of […].
# The TPK-I activity of typical compounds of the present invention was extremely high at a low concentration, as shown in the following Table.
# L 1210 leukemia cells = assay: Growth inhibition activity against cultured carcinoma cells (L 1210 leukemia cells); assay type: cell-based; conditions: Mus musculus, L1210, 72 h, read-out: L 1210 IC50 (50%-inhibition concentration against growth)
# Protocol: (B) Growth inhibition activity against cultured carcinoma cells:
# After the incubation, the number of the cells was counted and the activity was evaluated.
# [2] = test system: Staphylococcus aureus Smith; assay: Antimicrobial activity, MIC by agar dilution method (Staphylococcus aureus Smith); assay type: cell-based; conditions: read-out: MIC (Staphylococcus aureus Smith)
# Protocol: (§1) The minimum growth inhibition concentration (MIC) of the compounds of the present invention against various bacteria was measured by means of an agar dilution method using Muller-Hinton medium, which is shown in the following Table.
# Psudomonas aeruginosa A3 = assay: Antimicrobial activity, MIC by agar dilution method (Psudomonas aeruginosa A3); assay type: cell-based; conditions: read-out: MIC (Psudomonas aeruginosa A3)
# Protocol: as §1
# [3] = molecular target: T1, tyrosine-specific protein-kinase (epidermal growth factor receptor-kinase, A-431 membrane fraction); conditions: MH435-A, earlier application; cited from earlier work
# various bacteria = conditions: MH435-A, earlier application; cited from earlier work
# cultured carcinoma cells = conditions: MH435-A, earlier application; cited from earlier work
# [4] = A-431 membrane fraction, EGF, histone, pH 7.4, 0° C., 30 minutes, read-out: TPK-I IC50 (converted)
# [5] = L 1210 leukemia cells, 3 days, 37° C., 5% CO2
# [6] = agar dilution method, Muller-Hinton medium
Compound,"IC50 [1, 4] [µM]",IC50 (L 1210 leukemia cells; [5]) [µg/mL],"MIC [2, 6] [µg/mL]",MIC (Psudomonas aeruginosa A3; [6]) [µg/mL],other results
"CC(=O)NC=Cc1cc(O)ccc1O [Compound 18, (2-acetamidovinyl)-2,5-dihydroxybenzene]",15.5,3,–,–,–
"O=CNC=Cc1cc(Br)ccc1O [Compound 9, (2-formamidovinyl)-5-bromo-2-hydroxybenzene]",> 26.4,12,100,> 50,–
"O=CNC=Cc1ccc(O)c(O)c1 [Compound 14, (2-formamidovinyl)-3,4-dihydroxybenzene]",7.26,22,> 50,25,–
"COc1ccc(O)c(C=CNC=O)c1 [Compound 11, (2-formamidovinyl)-2-hydroxy-5methoxybenzene]",> 33.1,23,> 100,> 50,–
"[C-]#[N+]C=Cc1cc(OC)ccc1OC [Compound 3, 2-(2,5-dimethoxyphenyl)vinylisocyanide]",–,–,–,–,IC50 [1]: > 52.9 µM; IC50 (L 1210 leukemia cells): 0.65 µg/mL; MIC [2]: 3.12 µg/mL; MIC (Psudomonas aeruginosa A3): 25 µg/mL
"O=CNC=Cc1ccccc1O [Compound 12, (2-formamidovinyl)-2-hydroxybenzene]",–,30,> 100,> 50,–
O=CNC=Cc1cc(O)ccc1O [MH435-A],–,–,–,–,inhibition of tyrosine-specific protein-kinase activity (in words) [3]: can inhibit the said protein-kinase activity in a low concentration; antimicrobial activity (in words) (various bacteria): has antimicrobial activity; antitumor activity (in words) (cultured carcinoma cells): antitumor activity
"O=CNC=Cc1cccc(O)c1O [Compound 13, (2-formamidovinyl)-2,3-dihydroxybenzene]",1.67,2.2,100,100,–
"[C-]#[N+]C=Cc1cc(Br)ccc1O [Compound 2, 2-(5-bromo-2-hydroxyphenyl)vinylisocyanide]",> 28.6,0.25,6.25,12.5,–
"COc1ccc(OC)c(C=CNC=O)c1 [Compound 10, (2-formamidovinyl)-2,5-dimethoxybenzene]",> 145,62,> 100,> 100,–
